Assay results: patent US4880826A, “Melatonin antagonist” (priority 1986, dated 1989)

Experiments:
prepubertal male rats = assay: Long-term administration to prepubertal male rats: accessory sex organ development and testosterone; assay type: in vivo, rat
Excerpt: (1) Long-term administration of melatonin (via the drinking water or via intraperitoneal injection) to prepubertal male rats results in retardation of testicular accessory sex organ development.
(4) Long-term administration of ML-23 alone to prepubertal male rats, enhanced testosterone levels in the blood of the animals.

[1] = tested on: Female rats kept under constant illumination; assay: Ovarian cyclicity of female rats kept under constant illumination; assay type: in vivo, rat
adult female rats = assay: Melatonin block of luteinizing hormone secretion and ovulation in adult female rats at proestrus; assay type: in vivo, rat
Excerpt: (2) Melatonin administration to adult female rats in the afternoon of proestrus blocks the phasic secretion of luteinizing hormone and ovulation.

Melatonin receptor = Melatonin receptor assay using 2-125I-iodo-ML-23; assay type: binding, rat; details: female rats: hypothalamus, medulla-pons, hippocampus, cerebellum, striatum, parietal cortex
Experimental: Tissue sections or isolated cells were suspended in 10 ml/g ice-cold 0.32M sucrose, homogenized in a teflon-glass homogenizer. The homogenate was centrifuged (10000 g-min) the pellet was discarded and the supernatant centrifuged (68000 g-min). The crude membrane pellet was suspended in 2 vol of 50 mM Tris-HCL buffer, pH 7.4 containing 4 mM CaCl2. 2-^125 I-iodo-ML-23 was prepared by iodination of ML-23 with Na^125 I (Amersham) (20 CI/mmol) in the presence of Iodo-Gen. The principal iodination product, 2-^125 I-iodo-ML 23 (^125 I-MLI-23) was separated from unsubstituted ML-23 as described in Example 2. Aliquots of the membrane preparations (200 μg protein/20 μl) were incubated with 40 μl Trisbuffer containing 20-100 nM ^125 I-MLI-23 for 30 min. at 37° C. on a shaking water bath, in the absence or presence of unlabelled melatonin (50 μM). Membranes were then collected by vacuum filtration using GF/C glass fiber filters and washed with 3×4 ml buffer at 4° C. The filters containing bound ^125 I-ML-23 were assayed for radioactivity using a Packard gamma counter. Specific binding was defined as that displaced by 50 μM of non-radioactive melatonin and ranged from 50 to 60% of the total binding at 50 nM ^125 I-MLI-23. […]

rat hypothalamus = details: cited from earlier work
[2] = oral administration in the presence of melatonin

SMILES: COc1ccc2[nH]cc(CCNc3ccc([N+](=O)[O-])cc3[N+](=O)[O-])c2c1 [ML-23, N-2,4-dinitrophenyl-5-methoxy-tryptamine]
- testosterone levels in the blood (prepubertal male rats; long-term administration alone): enhanced
- effect on melatonin's suppressive effects on prostate and seminal vesicle growth (prepubertal male rats; [2]): entirely abolished
- effect on melatonin's suppressive effects on serum testosterone levels (prepubertal male rats; [2]): entirely abolished
- ovarian cyclicity re-established by daily melatonin injections ([1]; rats treated orally with the antagonist, constant illumination): not in rats treated orally with ML-23
- effect on melatonin block of luteinizing hormone secretion and ovulation (adult female rats; via the drinking water, female rats given melatonin): prevented the effect of melatonin and normal ovulation occurred

SMILES: COc1ccc2[nH]c([125I])c(CCNc3ccc([N+](=O)[O-])cc3[N+](=O)[O-])c2c1 [^125 I-MLI-23]
- specific binding in brain regions (Melatonin receptor): found

SMILES: COc1ccc2[nH]cc(CCNC(C)=O)c2c1 [melatonin, 5-methoxy-N-acetyl-tryptamine]
- testicular accessory sex organ development (prepubertal male rats; long-term administration via the drinking water or intraperitoneal injection): retardation
- ovarian cyclicity ([1]; daily melatonin injections, female rats under constant illumination): reestablish ovarian cyclicity
- phasic secretion of luteinizing hormone and ovulation (adult female rats; administration in the afternoon of proestrus, adult female rats): blocks
- stimulated release of dopamine (rat hypothalamus): inhibits
